From PubChem BioAssay AID1259407 (Chemical Carcinogenesis Research Information System (CCRIS), 2018)
Activity calls are given as the source filed them. The rule behind the calls is not given here.

System: CCRIS mutagenicity, Ames/micronucleus/aberration tests
Assay: CCRIS mutagenicity studies
Conditions: Method: PREINCUBATION
[1] = Test System: AMES SALMONELLA TYPHIMURIUM, Strain/Indicator: TA98, Metabolic Activation: HAMSTER, LIVER, S-9, AROCLOR 1254 (10%)
[2] = Test System: AMES SALMONELLA TYPHIMURIUM, Strain/Indicator: TA98, Metabolic Activation: NONE
[3] = Test System: AMES SALMONELLA TYPHIMURIUM, Strain/Indicator: TA98, Metabolic Activation: RAT, LIVER, S-9, AROCLOR 1254 (10%)
[4] = Test System: AMES SALMONELLA TYPHIMURIUM, Strain/Indicator: TA100, Metabolic Activation: HAMSTER, LIVER, S-9, AROCLOR 1254 (10%)
[5] = Test System: AMES SALMONELLA TYPHIMURIUM, Strain/Indicator: TA100, Metabolic Activation: NONE
[6] = Test System: AMES SALMONELLA TYPHIMURIUM, Strain/Indicator: TA100, Metabolic Activation: RAT, LIVER, S-9, AROCLOR 1254 (10%)
[7] = Test System: AMES SALMONELLA TYPHIMURIUM, Strain/Indicator: TA1535, Metabolic Activation: HAMSTER, LIVER, S-9, AROCLOR 1254 (10%)
[8] = Test System: AMES SALMONELLA TYPHIMURIUM, Strain/Indicator: TA1535, Metabolic Activation: NONE
[9] = Test System: AMES SALMONELLA TYPHIMURIUM, Strain/Indicator: TA1535, Metabolic Activation: RAT, LIVER, S-9, AROCLOR 1254 (10%)
[10] = Test System: AMES SALMONELLA TYPHIMURIUM, Strain/Indicator: TA1537, Metabolic Activation: NONE
[11] = Test System: AMES SALMONELLA TYPHIMURIUM, Strain/Indicator: TA97, Metabolic Activation: NONE

Measured: mutagenic call

CCOCCOC(=O)/C=C/c1ccc(OC)cc1
inactive: [1] inactive; negative | [2] inactive; negative | [3] inactive; negative | [4] inactive; negative | [5] inactive; negative | [6] inactive; negative | [7] inactive; negative | [8] inactive; negative | [9] inactive; negative | Test System: AMES SALMONELLA TYPHIMURIUM, Strain/Indicator: TA1537, Metabolic Activation: HAMSTER, LIVER, S-9, AROCLOR 1254 (10%) inactive; negative | [10] inactive; negative | Test System: AMES SALMONELLA TYPHIMURIUM, Strain/Indicator: TA1537, Metabolic Activation: RAT, LIVER, S-9, AROCLOR 1254 (10%) inactive; negative

CCCCCCCCCc1ccc(O)cc1
inactive: [11] inactive; negative | Test System: AMES SALMONELLA TYPHIMURIUM, Strain/Indicator: TA97, Metabolic Activation: S-9 inactive; negative | Test System: AMES SALMONELLA TYPHIMURIUM, Strain/Indicator: TA98, Metabolic Activation: RAT, LIVER, S-9, KC 500 inactive; negative | Test System: AMES SALMONELLA TYPHIMURIUM, Strain/Indicator: TA98, Metabolic Activation: RAT, LIVER, S-9, SODIUM PHENOBARBITAL AND 5,6-BENZOFLAVONE inactive; negative | Test System: AMES SALMONELLA TYPHIMURIUM, Strain/Indicator: TA98, Metabolic Activation: S-9 inactive; negative | Test System: AMES SALMONELLA TYPHIMURIUM, Strain/Indicator: TA100, Metabolic Activation: RAT, LIVER, S-9, KC 500 inactive; negative | Test System: AMES SALMONELLA TYPHIMURIUM, Strain/Indicator: TA100, Metabolic Activation: RAT, LIVER, S-9, SODIUM PHENOBARBITAL AND 5,6-BENZOFLAVONE inactive; negative | Test System: AMES SALMONELLA TYPHIMURIUM, Strain/Indicator: TA100, Metabolic Activation: S-9 inactive; negative | Test System: AMES SALMONELLA TYPHIMURIUM, Strain/Indicator: TA102, Metabolic Activation: RAT, LIVER, S-9, SODIUM PHENOBARBITAL AND 5,6-BENZOFLAVONE inactive; negative | Test System: AMES SALMONELLA TYPHIMURIUM, Strain/Indicator: TA102, Metabolic Activation: S-9 inactive; negative | Test System: AMES SALMONELLA TYPHIMURIUM, Strain/Indicator: TA104, Metabolic Activation: NONE inactive; negative | Test System: AMES SALMONELLA TYPHIMURIUM, Strain/Indicator: TA104, Metabolic Activation: RAT, LIVER, S-9, SODIUM PHENOBARBITAL AND 5,6-BENZOFLAVONE inactive; negative | Test System: AMES SALMONELLA TYPHIMURIUM, Strain/Indicator: TA104, Metabolic Activation: S-9 inactive; negative | [8] inactive; negative | Test System: AMES SALMONELLA TYPHIMURIUM, Strain/Indicator: TA1535, Metabolic Activation: RAT, LIVER, S-9, KC 500 inactive; negative | Test System: AMES SALMONELLA TYPHIMURIUM, Strain/Indicator: TA1535, Metabolic Activation: RAT, LIVER, S-9, SODIUM PHENOBARBITAL AND 5,6-BENZOFLAVONE inactive; negative | [10] inactive; negative | Test System: AMES SALMONELLA TYPHIMURIUM, Strain/Indicator: TA1537, Metabolic Activation: RAT, LIVER, S-9, KC 500 inactive; negative | Test System: AMES SALMONELLA TYPHIMURIUM, Strain/Indicator: TA1537, Metabolic Activation: RAT, LIVER, S-9, SODIUM PHENOBARBITAL AND 5,6-BENZOFLAVONE inactive; negative | Test System: AMES SALMONELLA TYPHIMURIUM, Strain/Indicator: TA1538, Metabolic Activation: NONE inactive; negative | Test System: AMES SALMONELLA TYPHIMURIUM, Strain/Indicator: TA1538, Metabolic Activation: RAT, LIVER, S-9, KC 500 inactive; negative | Test System: E. COLI, Strain/Indicator: WP2UVRA/PKM101, Metabolic Activation: NONE inactive; negative | Test System: E. COLI, Strain/Indicator: WP2UVRA/PKM101, Metabolic Activation: RAT, LIVER, S-9, SODIUM PHENOBARBITAL AND 5,6-BENZOFLAVONE inactive; negative | Test System: E. COLI, Strain/Indicator: WP2 UVRA, Metabolic Activation: NONE inactive; negative | Test System: E. COLI, Strain/Indicator: WP2UVRA, Metabolic Activation: NONE inactive; negative | Test System: E. COLI, Strain/Indicator: WP2 UVRA, Metabolic Activation: RAT, LIVER, S-9, KC 500 inactive; negative | Test System: E. COLI, Strain/Indicator: WP2UVRA, Metabolic Activation: RAT, LIVER, S-9, SODIUM PHENOBARBITAL AND 5,6-BENZOFLAVONE inactive; negative

Nc1ccc(NCCO)c([N+](=O)[O-])c1
active: Test System: AMES SALMONELLA TYPHIMURIUM, Strain/Indicator: TA97, Metabolic Activation: HAMSTER, LIVER, S-9, AROCLOR 1254 (10%) active; positive | Test System: AMES SALMONELLA TYPHIMURIUM, Strain/Indicator: TA97, Metabolic Activation: HAMSTER, LIVER, S-9, AROCLOR 1254 active; positive | [11] active; positive | Test System: AMES SALMONELLA TYPHIMURIUM, Strain/Indicator: TA97, Metabolic Activation: RAT, LIVER, S-9, AROCLOR 1254 (10%) active; positive | Test System: AMES SALMONELLA TYPHIMURIUM, Strain/Indicator: TA97, Metabolic Activation: RAT, LIVER, S-9, AROCLOR 1254 active; positive | [1] active; positive | Test System: AMES SALMONELLA TYPHIMURIUM, Strain/Indicator: TA98, Metabolic Activation: HAMSTER, LIVER, S-9, AROCLOR 1254 active; positive | [2] active; positive | [3] active; positive | Test System: AMES SALMONELLA TYPHIMURIUM, Strain/Indicator: TA98, Metabolic Activation: RAT, LIVER, S-9, AROCLOR 1254 active; positive | [4] active; positive | Test System: AMES SALMONELLA TYPHIMURIUM, Strain/Indicator: TA100, Metabolic Activation: HAMSTER, LIVER, S-9, AROCLOR 1254 active; positive | [5] active; positive | [6] active; positive | Test System: AMES SALMONELLA TYPHIMURIUM, Strain/Indicator: TA100, Metabolic Activation: RAT, LIVER, S-9, AROCLOR 1254 active; positive
inactive: [7] inactive; negative | Test System: AMES SALMONELLA TYPHIMURIUM, Strain/Indicator: TA1535, Metabolic Activation: HAMSTER, LIVER, S-9, AROCLOR 1254 inactive; negative | [8] inactive; negative | [9] inactive; negative | Test System: AMES SALMONELLA TYPHIMURIUM, Strain/Indicator: TA1535, Metabolic Activation: RAT, LIVER, S-9, AROCLOR 1254 inactive; negative
